Results published in patent EP0008888A1, “Beta-lactam antibacterial compounds, their preparation and pharmaceutical compositions containing them” (BEECHAM GROUP PLC, priority 1978, dated 1980).
Values after ≈ are worked out from the molar mass of the structure shown. Like-named read-outs stand apart in the source and are kept apart here.

Columns and labels:
Experiment in all cases: MIC in a standard test
Assay type in all cases: cell-based
Escherichia coli 0111 = test system: Escherichia coli 0111
[1] = test system: Streptococcus pyogenes CN10
[2] = test system: Staphylococcus aureus 1517
Proteus mirabilis C977 = test system: Proteus mirabilis C977
Proteus morganii I580 = conditions: Morganella morganii
Pseudomonas aeruginosa A = test system: Pseudomonas aeruginosa A
[3] = test system: Staphylococcus aureus Oxford
[4] = test system: Salmonella typhimurium CT10; conditions: Salmonella enterica
Enterobacter cloacoae N1 = test system: Enterobacter cloacoae N1
Proteus vulgaris WO91 = test system: Proteus vulgaris WO91
[5] = test system: Staphylococcus aureus Russell
Bacillus subtilis A = test system: Bacillus subtilis A
Proteus rettgeri WM16 = conditions: Providencia rettgeri
Escherichia coli JT39 = test system: Escherichia coli JT39
Citrobacter freundii E8 = test system: Citrobacter freundii E8
Klebsiella aerogenes A = test system: Klebsiella aerogenes A
Streptococcus faecalis I = conditions: Enterococcus faecalis
[6] = test system: Streptococcus pneumoniae CN33
Serratia marcescens US20 = test system: Serratia marcescens US20
Shigella sonnei MB 11967 = conditions: MB11967
[7] = standard test, Escherichia coli JT39, read-out: MIC

Row | SMILES | MIC (Escherichia coli 0111) | MIC [1] | MIC [2] | MIC (Proteus mirabilis C977) | MIC (Proteus morganii I580) | MIC (Pseudomonas aeruginosa A) | MIC [3] | MIC [4] | MIC (Enterobacter cloacoae N1) | MIC (Proteus vulgaris WO91) | MIC [5] | MIC (Bacillus subtilis A) | MIC (Proteus rettgeri WM16) | MIC (Escherichia coli JT39; [7]) | MIC (Citrobacter freundii E8) | MIC (Klebsiella aerogenes A) | MIC (Streptococcus faecalis I) | MIC [6] | MIC (Serratia marcescens US20) | MIC (Shigella sonnei MB 11967) | further results
1 | CCSC1=C(C(=O)O)N2C(=O)[C@@H](C)[C@H]2C1 (relative stereo) [Example 79, Sodium 3 - ethylthio-6β - methyl - 7 - oxo - 1 - azabicyclo [3.2 .O] hept - 2 - ene - 2 - carboxylate] | 6.2 µg/mL | 3.1 µg/mL | > 50 µg/mL | 6.2 µg/mL | 25 µg/mL | > 50 µg/mL | 3.1 µg/mL | 3.1 µg/mL | 6.2 µg/mL | 25 µg/mL | 6.2 µg/mL | 6.2 µg/mL | 25 µg/mL | 6.2 µg/mL | 6.2 µg/mL | 3.1 µg/mL | > 50 µg/mL | 0.8 µg/mL | 12.5 µg/mL | 3.1 µg/mL | 
2 | CCSC1=C(C(=O)OCc2ccc([N+](=O)[O-])cc2)N2C(=O)[C@@H](CCN=[N+]=[N-])[C@H]2C1 (relative stereo) [Example 82, p - Nitrobenzyl - 6β-(2 - azidoethyl) - 3 - ethylthio - 7 - oxo - 1 - azabicyclo [3.2.O] hept-2 - ene - 2 - carboxylate] | 1.6 µg/mL (≈ 3.83 µM) |  | 50 µg/mL (≈ 120 µM) | 12.5 µg/mL (≈ 29.9 µM) | 12.5 µg/mL (≈ 29.9 µM) | > 50 µg/mL | 0.8 µg/mL (≈ 1.92 µM) | 3.1 µg/mL (≈ 7.43 µM) | 12.5 µg/mL (≈ 29.9 µM) | 12.5 µg/mL (≈ 29.9 µM) | 1.6 µg/mL (≈ 3.83 µM) | 1.6 µg/mL (≈ 3.83 µM) | 6.2 µg/mL (≈ 14.9 µM) | 12.5 µg/mL (≈ 29.9 µM) | 3.1 µg/mL (≈ 7.43 µM) | 1.6 µg/mL (≈ 3.83 µM) | 50 µg/mL (≈ 120 µM) |  | 12.5 µg/mL (≈ 29.9 µM) | 3.1 µg/mL (≈ 7.43 µM) | 
3 | CCSC1=C(C(=O)[O-])N2C(=O)CC2C1.[Na+] (stereo not shown) [Example 7, Sodium 3-ethylthio-7-oxo-1-azabicyclo(3,2,0)hept-2-ene-2-carboxylate] | 2.5 µg/mL | 1 µg/mL | > 100 µg/mL | 10 µg/mL | 10 µg/mL | > 100 µg/mL | 5 µg/mL | 2.5 µg/mL | 2.5 µg/mL | 50 µg/mL | 10 µg/mL | 1 µg/mL | 50 µg/mL |  | 2.5 µg/mL | 1 µg/mL | 100 µg/mL | 1 µg/mL | 10 µg/mL | 5.2 µg/mL | MIC (Escherichia coli JT39; Escherichia coli, JT39): 50 µg/mL
4 | CCSC1=C(C(=O)OC2OC(=O)c3ccccc32)N2C(=O)C[C@H]2C1 (stereo partly shown) [Example 9, Phthalidyl 3-ethylthio-7-oxo-1-azabicyclo[3.2.0]hept-2-ene-2-carboxylate] | 12.5 µg/mL (≈ 36.2 µM) | 12.5 µg/mL (≈ 36.2 µM) | > 50 µg/mL | 25 µg/mL (≈ 72.4 µM) | 25 µg/mL (≈ 72.4 µM) | > 50 µg/mL | > 50 µg/mL | 12.5 µg/mL (≈ 36.2 µM) |  | > 50 µg/mL | > 50 µg/mL | 25 µg/mL (≈ 72.4 µM) | > 50 µg/mL | > 50 µg/mL | 12.5 µg/mL (≈ 36.2 µM) | 12.5 µg/mL (≈ 36.2 µM) | > 50 µg/mL |  | 50 µg/mL (≈ 145 µM) | 12.5 µg/mL (≈ 36.2 µM) | 
5 | NCCSC1=C(C(=O)O)N2C(=O)CC2C1 (stereo not shown) [Example 15, 3-Aminoethylthio-7-oxo-1-azabicyclo[3.2.0]hept-2-ene-2-carboxylic acid] | 3.1 µg/mL (≈ 13.6 µM) | 0.4 µg/mL (≈ 1.75 µM) |  | 25 µg/mL (≈ 110 µM) | 25 µg/mL (≈ 110 µM) | 6.2 µg/mL (≈ 27.2 µM) | 0.8 µg/mL (≈ 3.5 µM) | 3.1 µg/mL (≈ 13.6 µM) | 3.1 µg/mL (≈ 13.6 µM) | 25 µg/mL (≈ 110 µM) | > 3.1 µg/mL | 0.8 µg/mL (≈ 3.5 µM) | 25 µg/mL (≈ 110 µM) | 1.6 µg/mL (≈ 7.01 µM) | 3.1 µg/mL (≈ 13.6 µM) | 1.6 µg/mL (≈ 7.01 µM) | 25 µg/mL (≈ 110 µM) | 0.2 µg/mL (≈ 0.876 µM) | 6.2 µg/mL (≈ 27.2 µM) | 3.1 µg/mL (≈ 13.6 µM) | 
6 | COC(=O)CCSC1=C(C(=O)O)N2C(=O)C[C@H]2C1 [Example 23, Potassium 3-(2-methoxycarbonylethvlthio)-7-oxo-l-azabicyclo[3.2.0]hept-2-ene-2-carboxylate] | 1.6 µg/mL | 0.8 µg/mL | > 50 µg/mL | 12.5 µg/mL | 25 µg/mL | > 50 µg/mL | 12.5 µg/mL | 3.1 µg/mL |  | 25 µg/mL | 50 µg/mL | 3.1 µg/mL | 25 µg/mL | 6.2 µg/mL | 1.6 µg/mL | 1.6 µg/mL | > 50 µg/mL | ≤ 0.2 µg/mL | 25 µg/mL |  | 
7 | COCCSC1=C(C(=O)O)N2C(=O)C[C@H]2C1 [Example 32, Sodium 3-(2-methxyethylthio)-7-oxo-1-azabicyclo[3.2.0] hept-2-ene-2-carboxylate] | 3.1 µg/mL | 1.6 µg/mL | > 50 µg/mL | 6.2 µg/mL | 50 µg/mL | > 100 µg/mL | 6.2 µg/mL | 3.1 µg/mL | 6.2 µg/mL | 50 µg/mL | 25 µg/mL | 1.6 µg/mL | 50 µg/mL | 6.2 µg/mL | 3.1 µg/mL | 1.6 µg/mL | 50 µg/mL | ≤ 0.2 µg/mL | 12.5 µg/mL | 3.1 µg/mL | 
8 | CNC(=O)OCCSC1=C(C(=O)[O-])N2C(=O)CC2C1.[Na+] (stereo not shown) [Example 37, Sodium 3-(2-methylcarbamoyloxyethylthio)-7-oxo-1-azabicyclo [3.2.0]hept-2-ene-2-carboxylate] | 0.8 µg/mL | ≤ 0.2 µg/mL | > 50 µg/mL | 1.6 µg/mL | 12.5 µg/mL | > 50 µg/mL | 1.6 µg/mL | 0.8 µg/mL | 1.6 µg/mL | 12.5 µg/mL | 12.5 µg/mL | 0.8 µg/mL | 12.5 µg/mL |  | 1.6 µg/mL | 0.4 µg/mL | 25 µg/mL | ≤ 0.2 µg/mL | 6.2 µg/mL | 0.8 µg/mL | MIC (Escherichia coli JT39; Escherichia coli, JT39): 6.2 µg/mL
9 | CSC1=C(C(=O)[O-])N2C(=O)CC2C1.[Na+] (stereo not shown) [Example 42, Sodium 3-methylthio-7-oxo-1-azabicyclo[3.2.0]hept-2-ene-2-carboxylate] | 3.1 µg/mL | 0.8 µg/mL | > 50 µg/mL | 25 µg/mL | 25 µg/mL | > 50 µg/mL | 6.2 µg/mL | 3.1 µg/mL | 3.1 µg/mL | 25 µg/mL | 12.5 µg/mL | 1.6 µg/mL | 25 µg/mL |  | 1.6 µg/mL | 3.1 µg/mL | > 50 µg/mL | ≤ 0.2 µg/mL | 3.1 µg/mL | 3.1 µg/mL | MIC (Escherichia coli JT39; Escherichia coli, JT39): 6.2 µg/mL
10 | O=C(O)C1=C(SCc2ccccc2)C[C@@H]2CC(=O)N12 [Example 47, Sodium 3-benzylthio-7-oxo-1-azabicyclo[3.2.0]hept-2-ene-2-carboxvlate] | 6.2 µg/mL | 1.6 µg/mL | > 50 µg/mL | 50 µg/mL | 50 µg/mL | > 50 µg/mL | 6.2 µg/mL | 6.2 µg/mL | 12.5 µg/mL | > 50 µg/mL | 6.2 µg/mL | 1.6 µg/mL | > 50 µg/mL | 50 µg/mL | 25 µg/mL | 6.2 µg/mL | > 50 µg/mL | ≤ 0.2 µg/mL | 50 µg/mL | 6.2 µg/mL | 
